For test [1], the system named is EOL-1. The test is described as follows: Cell growth inhibition assay, EOL-1. Format: cell-based. Particulars: Homo sapiens, EOL1, 168 h; EOL-1, 7 days. The protocol:
(§1) Tumor cell lines are plated onto 96-well, black wall poly-D-lysine plates (Corning #354640), and incubated at 37° C., 5% CO2 for 18-24 hours. Compound was added at 1:3 dilutions in DMSO and cells were incubated at 37° C., 5% CO2 for 7 days. For adherent cell lines, cells were fixed and stained with propidium iodide and scanned on Acumen (channel 3 setting). For suspension cell lines, cell growth was monitored using Cell Titer-Glo reagent.

Test [2] deals with THP-1. The test is described as follows: Cell growth inhibition assay, THP-1. As to conditions: Homo sapiens, 168 h; THP-1, 7 days. It counts as cell-based. As for the experimental part:
as §1

In test [3] the target is T1, EP300 (Homo sapiens, UniProt Q09472).
T1 sequence (Q09472 1049-1156 limits assumed): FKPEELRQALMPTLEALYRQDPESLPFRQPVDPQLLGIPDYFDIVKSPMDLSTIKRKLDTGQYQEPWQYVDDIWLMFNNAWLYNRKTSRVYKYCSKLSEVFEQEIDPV
Description: BromoKdELECT platform assay, EP300. Further details: purchased DiscoverX (BromoKdELECT service). Particulars: 11 points dose-response, mean from a duplicate experiment. It counts as binding. An excerpt:
(§2) The purpose of this assay is to evaluate the in vitro target engagement and selectivity (https://www.discoverx.com/services/drug-discovery-development-services/epigenetic-profiling/bromoscan-epigenetic-profiling/bromokdelect). Assay measurement is based on the amount of bromodomain captured in test and control samples by using quantitative PCR technology that detects the DNA label associated to bromodomain. Compounds that bind the bromodomain active site prevents its binding to the immobilized ligand and will reduce the amount of bromodomain captured on the solid support. […] Thus, compound activity is monitored by measuring the amount of bromodomain captured in test versus control samples by using qPCR. Binding affinity for test compound-bromodomain interactions are calculated by measuring the amount of bromodomain captured on the solid support as a function of the test compound concentration.
(§3) Binding affinity (Kd) of the compounds of Examples 1 and 2 towards CREBBP, EP300 and BRD4 (Bromodomain 1 (BD1) and Bromodomain 2 (BD2)) are determined in an 11 points dose-response study (See Table 5). Data is represented as a mean from a duplicate experiment.

Test [4] deals with MDA-MIB-453. The test is described as follows: Cell growth inhibition assay, MDA-MIB-453. Format: cell-based. Particulars: 168 h; MDA-MIB-453, 7 days. The protocol: as §1
Test [5] concerns the target T2, BRD4 (BD1, BD2) (Homo sapiens, UniProt O60885).
T2 construct: BRD4 (Bromodomain 1 (BD1) and Bromodomain 2 (BD2)); purchased DiscoverX (BromoKdELECT service)
Description: BromoKdELECT platform assay, BRD4 (BD1, BD2). Format: binding. As to conditions: 11 points dose-response, mean from a duplicate experiment.
Excerpt: as §2, §3

In test [6] the target is T1, EP300. The test is described as follows: NanoBRET assay, EP300 bromodomain. It counts as cell-based. Further details: NanoLuc-EP300-BD (Promega, 0.0002 μg); host or cells: HEK293. As to conditions: NanoBRET in HEK293 cells, read after 4 hours incubation; mean ± Standard Deviation. As for the experimental part:
(§4) HEK293 cells are seeded at 10×10^6 cells/16 mL in DMEM+10% FBS in a T-75 flask and left to attach for 4-6 hours. Transfection reagents are diluted in Opti-MEM media (no phenol red, no FBS) and 8% Fugene HD containing expression plasmids at a final concentration of the following: 1: Histone H3.3 HaloTag DNA (Promega, 0.02 μg)+NanoLuc-CREBBP-BD (Promega, 0.0002 μg); 2: Histone H3.3 HaloTag DNA (Promega, 0.02 μg)+NanoLuc-EP300-BD (Promega, 0.0002 μg); 3: Histone H4 HaloTag DNA (0.02 μg)+NanLuc-BRD4 Full Length (Promega, 0.0002 μg). The DNA/Fugene mixtures are left at RT for 10 minutes. Transfection mix (800 μL) is added per flask and immediately swirled to cover the cells. The plates are returned to the incubator for overnight transfection. The next day, HaloTag NanoBRET 618 ligand (20 μL/vial of 0.1 mM) is thawed at RT. […]
(§5) Compound is serially diluted and added to 96-well plates (2 10 mM, 3-fold dilutions, 100% DMSO). […] CREBBP/EP300 plates are read after 4 hours incubation and the BRD4 plates are read after overnight incubation. To develop plates for reading, allow all reagents to reach RT before use. […] The plate is shaken for 1 minute to mix and within 10 minutes, read on Envision plate reader with the following settings: Mirror: Luminescence; Emission filter: E600LP; 2nd emission filter: D460/50; Measurement height (mm): 6.5; Measurement time (s): 0.2 second.

Test [7] has as its system NCI-H1048. The test is described as follows: Cell growth inhibition assay, NCI-H1048. Format: cell-based. Particulars: Homo sapiens, 168 h; NCI-H1048, 7 days. The protocol: as §1
Test [8] concerns HL-60. The test is described as follows: Cell growth inhibition assay, HL-60. Format: cell-based. As to conditions: Homo sapiens, 168 h; HL-60, 7 days. The protocol:
as §1

The target of test [9] is CREBBP (Homo sapiens, UniProt Q92793). Description: NanoBRET assay, CREBBP bromodomain. Format: cell-based. Details: NanoLuc-CREBBP-BD (Promega, 0.0002 μg); host or cells: HEK293. Particulars: NanoBRET in HEK293 cells, read after 4 hours incubation; mean ± Standard Deviation. The protocol:
as §4, §5

Test [10] deals with T3, BRD4 (BD2) (Homo sapiens, UniProt O60885).
T3 construct: BRD4 (Bromodomain 1 (BD1) and Bromodomain 2 (BD2)); purchased DiscoverX (BromoKdELECT service)
The test is described as follows: BromoKdELECT platform assay, BRD4 (BD2). Format: binding. As to conditions: 11 points dose-response, mean from a duplicate experiment.
Excerpt: as §2, §3

The values that follow come from patent US20220251096A1, “7,8-DIHYDRO-4H-PYRAZOLO[4,3-c]AZEPINE-6-ONE COMPOUNDS” (Eli Lilly and Company, priority 2019, published 2022).

Structures are written as SMILES.

CREBBP, sequence (Q92793 1085-1192 limits assumed): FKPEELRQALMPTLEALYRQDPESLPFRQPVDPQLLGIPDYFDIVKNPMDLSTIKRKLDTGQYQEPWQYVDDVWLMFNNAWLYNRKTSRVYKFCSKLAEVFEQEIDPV

On to `CCNC(=O)c1ccc(-c2cc3cccc(-c4nn(C)c5c4CN(C)C(=O)CC5)c3cn2)cn1` [Example 2, 5-[8-(1,5-Dimethyl-6-oxo-7,8-dihydro-4H-pyrazolo[4,3-c]azepin-3-yl)-3-isoquinolyl]-N-ethyl-pyridine-2-carboxamide], for which the concentration for half-maximal inhibition (IC50) in test [1] was determined as 1 nM; in test [2] it was 29 nM; in test [4], 35 nM; in test [6] it was 26.1 ± 16.5 nM; in test [7], 18 nM; in [8], 328 nM. In test [9], this compound returned an IC50 of 18.6 ± 4.09 nM. The figures for the dissociation constant Kd in test [3], in test [5] and in [10] were 0.095 nM, 7400 nM and 6800 nM, respectively.
